Experimental data reported in patent US4317912A, “Tetracyclic indole derivatives” (Farmitalia Carlo Erba S.p.A., priority 1979, dated 1982).

Legend:
[1] = system: spontaneously hypertensive male rats, strain MHS; assay: Anti-hypertensive activity in spontaneously hypertensive rats (MHS), blood pressure and heart rate measured at the tail; type: in vivo, rat (spontaneously hypertensive; conditions: MHS rats; for Change in BP, 1st day, 1 hr after dose / Change in HR, 1st day, 1 hr after dose / Change in BP, 1st day, 5 hrs after dose / Change in HR, 1st day, 5 hrs after dose / Change in BP, 4th day, 1 hr after dose / Change in HR, 4th day, 1 hr after dose / Change in BP, 4th day, 5 hrs after dose / Change in HR, 4th day, 5 hrs after dose: mean of 4 animals
Protocol: Four spontaneously hypertensive male rats, strains MHS, weighing 250-300 g for each group were used.
The animals were treated for four consecutive days. Drugs were administered by gastric gavage, suspended in 5% arabic gum (0.2 ml/100 g body weight). Blood pressure (BP) and heart rate (HR) were measured at the tail by BP Recorder W+W. Blood pressure and heart rate were measured on the 1st and 4th day of treatment 1 hour before and 1 and 5 hours after drug administration.
*Data of LD50 from the literature. In Tables 1 and 2 are reported
the results of the study of the activity of compounds 355/1165 and
355/1166 upon the BP and HR (measured indirectly by means of a tail cuff)
of spontaneous hypertensive rats, MHS strain (4 rats each group). The
compounds were given orally, once a day for 4 consecutive days.

[2] = Acute (orientative) oral toxicity in mice; conditions: mouse, in vivo
Description: The male mice for each group were orally treated with drugs at different dose levels for the determination of orientative toxicity.

[3] = system: spontaneously hypertensive rats (Okamoto strain); assay: Anti-hypertensive activity in conscious spontaneously hypertensive rats (Okamoto), carotid artery catheter; type: in vivo, rat (spontaneously hypertensive; conditions: for Change in blood pressure after treatment, 30' / Change in heart rate after treatment, 30' / Change in blood pressure after treatment, 60' / Change in heart rate after treatment, 60' / Change in blood pressure after treatment, 120' / Change in heart rate after treatment, 120' / Change in blood pressure after treatment, 240' / Change in heart rate after treatment, 240' / Change in blood pressure after treatment, 360' / Change in heart rate after treatment, 360': mean of 6 animals; for Effect on heart rate: oral (Table 4)
Protocol: Blood pressure recordings were made in conscious hypertensive unrestrained rats weighing approximately 300 g, via a catheter cronically inserted into the left common carotid artery. Implantation of arterial cannula was made under sodium pentobarbital anesthesia (50 mg/kg i.p.). A 1 cm long incision was made through the previously shaved ventral surface of the neck and the tissues overlying the trachea parted by blunt dissection to reveal the carotid artery. The polyethylene catheter used was made with PE 50 tubing, previously filled with saline containing 250 I.U./ml heparin. The tip of the cannula was pushed at least 2 cm inside the vessel toward the heart. The cannula was then firmly tied and passed beneath the skin to emerge from a small incision in the back of the neck. During the postoperative period and before the start of each recording session, the cannula was flushed through daily with saline containing heparin (250 U.I./ml). The experiments were performed two days after surgery. Drugs were administered by gastric gavage.

male mice = conditions: data of LD50 from the literature; cited from earlier work

Question: Which “Change in BP, 1st day, 1 hr after dose” value ([1]; 5 mg/kg os, 1st day) does the source give for `CCOC(=O)C(C#N)CC1CN(C)C2Cc3c[nH]c4cccc(c34)CC12` (stereo not drawn) [355/1166, 2-Cyano-3-[trans-5(10→9)abeo-6-methyl-ergoline-8β]-propionic acid ethyl ester] here?
Answer: Its value is -8 mmHg.

Question: And the “Change in HR, 1st day, 1 hr after dose” value ([1]; 5 mg/kg os, 1st day)?
Answer: The value was -25 b/min.

Question: And the “Change in BP, 1st day, 5 hrs after dose” value ([1]; 5 mg/kg os, 1st day)?
Answer: The value was -20 mmHg.

Question: What about the “Change in HR, 1st day, 5 hrs after dose” value ([1]; 5 mg/kg os, 1st day) of the same molecule?
Answer: The value was -25 b/min.

Question: And the “Change in BP, 4th day, 1 hr after dose” value ([1]; 5 mg/kg os, 4th day)?
Answer: Its value is -22 mmHg.

Question: And the “Change in HR, 4th day, 1 hr after dose” value ([1]; 5 mg/kg os, 4th day)?
Answer: Its value is -35 b/min.

Question: What about the “Change in BP, 4th day, 5 hrs after dose” value ([1]; 5 mg/kg os, 4th day) of the same molecule?
Answer: The value was -26 mmHg.

Question: What about the “Change in HR, 4th day, 5 hrs after dose” value ([1]; 5 mg/kg os, 4th day) of the same molecule?
Answer: Its value is -20 b/min.

Question: And the “Effect on BP” value ([1]; 5 mg/kg per os)?
Answer: The value was “lowers BP at each recording session, but its effect is more pronounced after the 4th dose”.

Question: What about the “Effectiveness compared with α-methyl-DOPA” value ([1]; 5 mg/kg per os) of the same molecule?
Answer: The value was 20 times.

Question: And the “Hypotensive effect compared with Hydralazine, after 4th administration” value ([1]; 1st and 5th hours after 4th administration, 5 mg/kg per os vs Hydralazine 3 mg/kg per os)?
Answer: Its value is “greater hypotensive effect”.

Question: What about the “Activity compared with Hydralazine, 1st day” value ([1]; 1st day, 5 mg/kg per os vs Hydralazine 3 mg/kg per os) of the same molecule?
Answer: The value was “less pronounced activity than Hydralazine”.

Question: What about the LD50 at 168 h [2] of the same molecule?
Answer: Its LD50 at 168 h is > 800 mg/kg.

Question: What about the “Change in blood pressure after treatment, 30'” value ([3]; 5 mg/kg os) of the same molecule?
Answer: Its value is 0 mmHg.

Question: What about the “Change in heart rate after treatment, 30'” value ([3]; 5 mg/kg os) of the same molecule?
Answer: The value was -20 b/min.

Question: What about the “Change in blood pressure after treatment, 60'” value ([3]; 5 mg/kg os) of the same molecule?
Answer: The value was -3 mmHg.

Question: What about the “Change in heart rate after treatment, 60'” value ([3]; 5 mg/kg os) of the same molecule?
Answer: Its value is -20 b/min.

Question: And the “Change in blood pressure after treatment, 120'” value ([3]; 5 mg/kg os)?
Answer: The value was -15 mmHg.

Question: And the “Change in heart rate after treatment, 120'” value ([3]; 5 mg/kg os)?
Answer: Its value is -35 b/min.

Question: What about the “Change in blood pressure after treatment, 240'” value ([3]; 5 mg/kg os) of the same molecule?
Answer: Its value is -18 mmHg.

Question: And the “Change in heart rate after treatment, 240'” value ([3]; 5 mg/kg os)?
Answer: The value was -15 b/min.

Question: What about the “Change in blood pressure after treatment, 360'” value ([3]; 5 mg/kg os) of the same molecule?
Answer: The value was -10 mmHg.

Question: And the “Change in heart rate after treatment, 360'” value ([3]; 5 mg/kg os)?
Answer: Its value is -20 b/min.

Question: And the “Effectiveness compared with the reference compound (hydralazine)” value ([3]; 5 mg/kg per os)?
Answer: The value was “less effective than the reference compound”.

Question: What about the “Effect on heart rate” value [3] of the same molecule?
Answer: Its value is “slight bradycardia and never tachicardia”.

Question: What does the source list for `CN1CC(CCC(N)=O)C2Cc3cccc4[nH]cc(c34)CC21` (stereo not drawn) [355/1226, Trans-5(10→9)abeo-6-methyl-ergoline-8β-propionamide]?
Answer: Change in BP, 1st day, 1 hr after dose ([1]; 1 mg/kg os, 1st day): -32 mmHg; Change in HR, 1st day, 1 hr after dose ([1]; 1 mg/kg os, 1st day): -20 b/min; Change in BP, 1st day, 5 hrs after dose ([1]; 1 mg/kg os, 1st day): -27 mmHg; Change in HR, 1st day, 5 hrs after dose ([1]; 1 mg/kg os, 1st day): +3 b/min; Change in BP, 4th day, 1 hr after dose ([1]; 1 mg/kg os, 4th day): -21 mmHg; Change in HR, 4th day, 1 hr after dose ([1]; 1 mg/kg os, 4th day): -5 b/min; Change in BP, 4th day, 5 hrs after dose ([1]; 1 mg/kg os, 4th day): -42 mmHg; Change in HR, 4th day, 5 hrs after dose ([1]; 1 mg/kg os, 4th day): -13 b/min; Change in BP, 1st day, 1 hr after dose ([1]; 3 mg/kg os, 1st day): -47 mmHg; Change in HR, 1st day, 1 hr after dose ([1]; 3 mg/kg os, 1st day): -20 b/min; Change in BP, 1st day, 5 hrs after dose ([1]; 3 mg/kg os, 1st day): -57 mmHg; Change in HR, 1st day, 5 hrs after dose ([1]; 3 mg/kg os, 1st day): -10 b/min; Change in BP, 4th day, 1 hr after dose ([1]; 3 mg/kg os, 4th day): -40 mmHg; Change in HR, 4th day, 1 hr after dose ([1]; 3 mg/kg os, 4th day): -40 b/min; Change in BP, 4th day, 5 hrs after dose ([1]; 3 mg/kg os, 4th day): -42 mmHg; Change in HR, 4th day, 5 hrs after dose ([1]; 3 mg/kg os, 4th day): -45 b/min; Effect on BP ([1]; 1 and 3 mg/kg per os): decreases BP; especially with the higher dose, this effect is remarkable and long lasting; Antihypertensive activity compared with Hydralazine, 1st day ([1]; 1st day, 355/1165 2 mg/kg, 355/1226 3 mg/kg per os vs Hydralazine 3 mg/kg per os): more marked antihypertensive activity; Antihypertensive effect compared with Hydralazine, 4th day ([1]; 4th day, 355/1165 2 mg/kg, 355/1226 3 mg/kg per os vs Hydralazine 3 mg/kg per os): even greater effect; Tolerance after repeated administration ([1]; four days, 355/1165 2 mg/kg, 355/1226 3 mg/kg, 355/1225 and 355/1229 5 mg/kg per os): tolerance does not occur after repeated administration; Activity compared with α-methyl-DOPA ([1]; 355/1165 2 mg/kg, 355/1226 3 mg/kg per os): 50 times; LD50 at 168 h [2]: > 800 mg/kg; Change in blood pressure after treatment, 30' ([3]; 3 mg/kg os): -19 mmHg; Change in heart rate after treatment, 30' ([3]; 3 mg/kg os): -33 b/min; Change in blood pressure after treatment, 60' ([3]; 3 mg/kg os): -28 mmHg; Change in heart rate after treatment, 60' ([3]; 3 mg/kg os): -30 b/min; Change in blood pressure after treatment, 120' ([3]; 3 mg/kg os): -40 mmHg; Change in heart rate after treatment, 120' ([3]; 3 mg/kg os): -23 b/min; Change in blood pressure after treatment, 240' ([3]; 3 mg/kg os): -32 mmHg; Change in heart rate after treatment, 240' ([3]; 3 mg/kg os): -16 b/min; Change in blood pressure after treatment, 360' ([3]; 3 mg/kg os): -25 mmHg; Change in heart rate after treatment, 360' ([3]; 3 mg/kg os): +4 b/min; Hypotensive activity compared with 355/1165 and 355/1166 ([3]; 3 mg/kg per os): intermediate activity between compound 355/1165 and compound 355/1166; Effect on heart rate [3]: slight bradycardia and never tachicardia

Question: Which “Change in BP, 1st day, 1 hr after dose” value ([1]; 30 mg/kg os, 1st day) does the source give for `C[C@](N)(Cc1ccc(O)c(O)c1)C(=O)O` [α-Methyl-DOPA, reference compound] here?
Answer: Its value is -27 mmHg.

Question: What about the “Change in HR, 1st day, 1 hr after dose” value ([1]; 30 mg/kg os, 1st day) of the same molecule?
Answer: The value was “+33 b/min”.

Question: What about the “Change in BP, 1st day, 5 hrs after dose” value ([1]; 30 mg/kg os, 1st day) of the same molecule?
Answer: Its value is -4 mmHg.

Question: What about the “Change in HR, 1st day, 5 hrs after dose” value ([1]; 30 mg/kg os, 1st day) of the same molecule?
Answer: The value was “+36 b/min”.

Question: What about the “Change in BP, 4th day, 1 hr after dose” value ([1]; 30 mg/kg os, 4th day) of the same molecule?
Answer: The value was -2 mmHg.

Question: What about the “Change in HR, 4th day, 1 hr after dose” value ([1]; 30 mg/kg os, 4th day) of the same molecule?
Answer: The value was “+50 b/min”.

Question: What about the “Change in BP, 4th day, 5 hrs after dose” value ([1]; 30 mg/kg os, 4th day) of the same molecule?
Answer: Its value is 0 mmHg.

Question: What about the “Change in HR, 4th day, 5 hrs after dose” value ([1]; 30 mg/kg os, 4th day) of the same molecule?
Answer: Its value is “+20 b/min”.

Question: And the “Change in BP, 1st day, 1 hr after dose” value ([1]; 100 mg/kg os, 1st day)?
Answer: Its value is -6 mmHg.

Question: What about the “Change in HR, 1st day, 1 hr after dose” value ([1]; 100 mg/kg os, 1st day) of the same molecule?
Answer: Its value is “+73 b/min”.

Question: What about the “Change in BP, 1st day, 5 hrs after dose” value ([1]; 100 mg/kg os, 1st day) of the same molecule?
Answer: Its value is -22 mmHg.

Question: And the “Change in HR, 1st day, 5 hrs after dose” value ([1]; 100 mg/kg os, 1st day)?
Answer: Its value is “+40 b/min”.

Question: What about the “Change in BP, 4th day, 1 hr after dose” value ([1]; 100 mg/kg os, 4th day) of the same molecule?
Answer: Its value is -19 mmHg.

Question: What about the “Change in HR, 4th day, 1 hr after dose” value ([1]; 100 mg/kg os, 4th day) of the same molecule?
Answer: The value was “+70 b/min”.

Question: What about the “Change in BP, 4th day, 5 hrs after dose” value ([1]; 100 mg/kg os, 4th day) of the same molecule?
Answer: Its value is -31 mmHg.

Question: And the “Change in HR, 4th day, 5 hrs after dose” value ([1]; 100 mg/kg os, 4th day)?
Answer: Its value is “+20 b/min”.

Question: And the “Effect on heart rate” value ([1]; oral, all doses treated (Table 2))?
Answer: Its value is “no effect on heart rate”.

Question: What about the “LD50 (orientative toxicity in mice)” value (male mice) of the same molecule?
Answer: Its value is 5300 mg/kg per os.
